Earlier results on one molecule are cited in patent US20140170287A1, “METHODS FOR PREPARING AND COMPOSITIONS COMPRISING PLANT SEED-BASED OMEGA-3 FATTY ACIDS” (Living Healthy World LLC, priority 2012, published 2014).

SMILES strings stand for the structures.

This data set has as its system C-reactive protein (CRP). Conditions: consumption of ALA in flaxseeds; CRP as marker of the inflammatory status in the cardiovascular system.

`CC/C=C\C/C=C\C/C=C\CCCCCCCC(=O)O` [ALA, alpha-linolenic acid]: the “decrease of blood levels of C-reactive protein (CRP)” value is given as 10-15%.
